These results are taken from patent US7307044B2, “3-biphenyl-substituted-3-substituted-4-ketolactam and ketolactone and their utilization as pesticide” (Bayer CropScience AG, priority 2001, dated 2007).

One data set in a line: physchem. The class given is physicochemical. Particulars: for log P: pH 2.3. The procedure:
The stated log P values were determined in accordance with EEC Directive 79/831 Annex V.A8 by HPLC (High Performance Liquid Chromatography) using a reversed-phase column (C 18). Temperature: 43° C. • (a) Mobile phases for the determination in the acidic range: 0.1% aqueous phosphoric acid, acetonitrile; linear gradient from 10% acetonitrile to 90% acetonitrile. • (b) Mobile phases for the determination in the neutral range: 0.01 molar aqueous phosphate buffer solution, acetonitrile; linear gradient from 10% acetonitrile to 90% acetonitrile.
Calibration was carried out using unbranched alkan-2-ones (of 3 to 16 carbon atoms) with known log P values (determination of the log P values by the retention times using linear interpolation between two successive alkanones).

Data set [1] relates to larvae of the mustard beetle (Phaedon cochleariae). Put plainly: Phaedon larvae test. The class given is in vivo. The note with it: cabbage leaves dipped. The procedure:
(§1) Phaedon Larvae Test Solvent: 7 parts by weight of dimethylformamide Emulsifier: 2 parts by weight of alkylaryl polyglycol ether To produce a suitable preparation of active compound, 1 part by weight of active compound is mixed with the stated amounts of solvent and emulsifier, and the concentrate is diluted with emulsifier-containing water to the desired concentration. Cabbage leaves (Brassica oleracea) are treated by being dipped into the preparation of active compound of the desired concentration and are populated with larvae of the mustard beetle (Phaedon cochleariae) while the leaves are still moist. After the desired period of time, the kill in % is determined. 100% means that all beetle larvae have been killed; 0% means that none of the beetle larvae have been killed.

The next data set concerns Alopecurus. Put plainly: Post-emergence test (greenhouse). The class given is in vivo. The note with it: 250 g ai/ha, after three weeks. The procedure: (§2) Solvent: 5 parts by weight of acetone
(§3) Emulsifier: 1 part by weight of alkylaryl polyglycol ether
(§4) To produce a suitable preparation of active compound, 1 part by weight of active compound is mixed with the stated amount of solvent, the stated amount of emulsifier is added and the concentrate is diluted with water to the desired concentration.
(§5) Test plants of a height of 5-15 cm are sprayed with the preparation of active compound such that the particular amounts of active compound desired are applied per unit area. The concentration of the spray liquor is chosen such that the particular amounts of active compound desired are applied in 1000 l of water/ha.
(§6) After three weeks, the degree of damage to the plants is rated in % damage in comparison to the development of the untreated control.
(§7) The figures denote: • 0%=no effect (like untreated control) • 100%=total destruction

For the next data set, the system named is Sugar beet. As to the kind of experiment: Post-emergence test (greenhouse). The class given is in vivo. Particulars: 250 g ai/ha, after three weeks. The procedure: as §2, §3, §4, §5, §6, §7
A further data set has as its system Echinochloa. As to the kind of experiment: Post-emergence test (greenhouse). The class given is in vivo. Particulars: 250 g ai/ha, after three weeks. The procedure:
as §2, §3, §4, §5, §6, §7

The test system of the next data set is Avena fatua. As to the kind of experiment: Post-emergence test (greenhouse). The class given is in vivo. The note with it: 250 g ai/ha, after three weeks. The procedure:
as §2, §3, §4, §5, §6, §7

The test system of another data set is Setaria. Put plainly: Post-emergence test (greenhouse). The note with it: 250 g ai/ha, after three weeks. The class given is in vivo. The procedure: as §2, §3, §4, §5, §6, §7
The test system of data set [2] is greenhouse red spider mite (Tetranychus urticae). Put plainly: Tetranychus test (OP-resistent/dip treatment). The note with it: 100 ppm, bean plants dipped. The class given is in vivo. The procedure: Tetranychus Test (OP-Resistent/Dip Treatment)
Solvent: 7 parts by weight of dimethylformamide
Emulsifier: 2 parts by weight of alkylaryl polyglycol ether
To produce a suitable preparation of active compound, 1 part by weight of active compound is mixed with the stated amounts of solvent and emulsifier, and the concentrate is diluted with emulsifier-containing water to the desired concentration.
Bean plants (Phaseolus vulgaris) which are heavily infested by all stages of the greenhouse red spider mite (Tetranychus urticae) are dipped into a preparation of active compound of the desired concentration.
After the desired period of time, the effect in % is determined. 100% means that all spider mites have been killed; 0% means that none of the spider mites have been killed.

Data set [3] deals with green peach aphid (Myzus persicae). As to the kind of experiment: Myzus test. The class given is in vivo. The note with it: 500 ppm, cabbage leaves dipped. The procedure:
as §1, with “Myzus” for “Phaedon Larvae”, “oleracea) which are heavily infested by the green peach aphid (Myzus persicae)” for “oleracea)”, “concentration.” for “concentration and are populated with larvae of the mustard beetle (Phaedon cochleariae) while the leaves are still moist.”, “aphids” for “beetle larvae”

A further data set has as its system Plasmopara viticola. Put plainly: Plasmopara test (grapevine)/protective. The class given is in vivo. Particulars: protective, 100 g/ha, evaluation 6 days after inoculation. The procedure: Plasmopara Test (Grapevine)/Protective Solvents: 24.5 parts by weight of acetone • 24.5 parts by weight of dimethylacetamide Emulsifier: 1.0 part by weight of alkylaryl polyglycol ether To produce a suitable preparation of active compound, 1 part by weight of active compound is mixed with the stated amounts of solvent and emulsifier, and the concentrate is diluted with water to the desired concentration. To test for protective activity, young plants are sprayed with the preparation of active compound at the stated application rate. After the spray coating has dried on, the plants are inoculated with an aqueous spore suspension of Plasmopara viticola and then remain in an incubation cabin at 20° C. and 100% relative atmospheric humidity for 1 day. The plants are then placed in a greenhouse at about 21° C. and about 90% atmospheric humidity for 4 days. The plants are then moistened and placed in an incubation cabin for 1 day.

The subject of data set [4] is caterpillars of the armyworm (Spodoptera frugiperda). Put plainly: Spodoptera frugiperda test. The class given is in vivo. The note with it: cabbage leaves dipped. The procedure: as §1, with “Spodoptera frugiperda” for “Phaedon Larvae”, “caterpillars” for “larvae”, “armyworm (Spodoptera frugiperda)” for “mustard beetle (Phaedon cochleariae)”, “caterpillars” for “beetle larvae”

Data set [5] relates to caterpillars of the diamondback moths (Plutella xylostella). Put plainly: Plutella test. The class given is in vivo. The note with it: 500 ppm, cabbage leaves dipped. The procedure: as §1, with “Plutella” for “Phaedon Larvae”, “caterpillars” for “larvae”, “diamondback moths (Plutella xylostella)” for “mustard beetle (Phaedon cochleariae)”, “caterpillars” for “beetle larvae”

As to `Cc1cc(C)c(C2(Cl)C(=O)OC3(CCCC3)C2=O)cc1-c1ccc(Cl)cc1` (stereo not drawn) [I-2-6], the “log P” value in the data set “physchem” is reported as “log P 5.56”.
Turning to `Cc1ccc(-c2ccc(Cl)cc2)cc1C1(Cl)C(=O)SC2(CCCCC2)C1=O` (stereo not drawn) [Ex. I-3-1], in [1] (500 ppm), the “Kill rate in % after 7 d” value stood at 100%.
With `Cc1ccc(-c2ccc(Cl)cc2)cc1C1(Cl)C(=O)OC(C)(C(C)C)C1=O` (stereo not drawn) [I-2-5], the “log P” value in the data set “physchem” is given as “log P 5.61”.
On the same count and under the same terms, the entry for `Cc1cc(-c2ccc(Cl)cc2)cc(C)c1C1(Cl)C(=O)OC(C)(C)C1=O` (stereo not drawn) [I-2-14] is “log P 5.11”; for `Cc1ccc(-c2cccc(F)c2)cc1C1(Cl)C(=O)OC(C)(C)C1=O` (stereo not drawn) [I-2-11] it is “log P 4.30”.
With `Cc1ccc(-c2ccc(Cl)cc2)cc1C1(Cl)C(=O)NC2(CCOCC2)C1=O` (stereo not drawn) [Ex. I-1-14], the “degree of damage to the plants in % damage” value (“degree … in % damage” for short) with Alopecurus worked out at 80%; in the data set with Sugar beet, 0%; in the data set on Echinochloa, 100%; in the data set with Avena fatua, 100%; with Setaria it was 100%. Moreover, the “Kill rate in % after 7 d” value in data set [2] worked out at 99%; in data set [1] (500 ppm), 100%; in [4] (500 ppm) it was 100%. In addition, in data set [3], the “Kill rate in % after 6 d” value is 100%. Further, in the data set on Plasmopara viticola, the “% efficacy” value is 100%.
For the compound `Cc1cc(-c2ccc(Cl)cc2)cc(C)c1C1(Cl)C(=O)OC2(CCCOC2)C1=O` (stereo not drawn) [I-2-17], in the data set “physchem”, the “log P” value is on record as “log P 4.91”.
`Cc1ccc(-c2cccc(Cl)c2)cc1C1(Cl)C(=O)NC(C)(C)C1=O` (stereo not drawn) [Ex. I-1-3]: the “Kill rate in % after 7 d” value in data set [1] (500 ppm) amounted to 100%.
As a reminder, the chromatographic logP is a lipophilicity value derived from retention on a column. For the compound `Cc1ccc(-c2ccc(Cl)cc2)cc1C1(Cl)C(=O)OC(C)(C)C1=O` (stereo not drawn) [Ex. I-2-1], the “Kill rate in % after 7 d” value is on record as 98% in [2], 100% in [1] (1000 ppm) and 100% in data set [4] (1000 ppm). Moreover, in the data set “physchem” (pH 2.5), the chromatographic logP is 4.8.
Take `Cc1cc(C)c(C2(Cl)C(=O)NC3(CCCOC3)C2=O)cc1-c1ccc(Cl)cc1` (stereo not drawn) [Ex. I-1-7]: the “degree … in % damage” value is 90% in the data set with Alopecurus, 100% in the data set on Echinochloa, 95% with Avena fatua and 100% in the data set on Setaria. The “Kill rate in % after 7 d” value in [2] is given as 98%; in data set [1] (500 ppm), 100%; in data set [4] (500 ppm), 100%. Further, the “Kill rate in % after 6 d” value in data set [3] was 100%.
With `CCOC1CCC2(CC1)OC(=O)C(Cl)(c1c(C)cc(-c3ccc(Cl)cc3)cc1CC)C2=O` (stereo not drawn) [I-2-13], the “log P” value in the data set “physchem” was “log P 5.59”.
Take `COC1CCC2(CC1)NC(=O)C(Cl)(c1cc(-c3cccc(Cl)c3)ccc1Cl)C2=O` (stereo not drawn) [Ex. I-1-12]: the “Kill rate in % after 7 d” value in [2], in data set [5], in [1] (500 ppm) and in [4] (500 ppm) was 100% each time. Besides, in the data set with Plasmopara viticola, the “% efficacy” value amounted to 94%.
Turning to `CCc1ccc(-c2ccc(Cl)cc2)cc1C1(Cl)C(=O)OC(C)(C)C1=O` (stereo not drawn) [I-2-7], in the data set “physchem”, the “log P” value is on record as “log P 5.05”.
Consider `CCOC1CCC2(CC1)NC(=O)C(Cl)(c1c(C)cc(-c3ccc(Cl)cc3)cc1Cl)C2=O` (stereo not drawn) [Ex. I-1-9], for which the “degree … in % damage” value is given as 95% in the data set on Alopecurus, 100% with Echinochloa, 100% in the data set on Avena fatua and 100% in the data set on Setaria. The “Kill rate in % after 6 d” value in [3] is on record as 95%. In data set [1] (500 ppm), the “Kill rate in % after 7 d” value is recorded as 100%.
